PubChem BioAssay AID2060895 (Molecular Pharmacology Branch, DTP, NCI, 2025)
Blank lines part the entries; values can stand above or below the molecule they belong to.

Test system: PDC 899932-113-R3-J6 complex spheroid viability
Assay: Anticancer human tumor 899932-113-R3-J6-PDC patient-derived melanoma cell line growth inhibition [RAS]
Settings: for IC50: curve of first compound; for viability, T/C: stronger effect = lower value
Method in brief: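 Multi-cell-type spheroids: tumor cells plus HUVEC endothelial cells and mesenchymal stem cells. RAS-pathway inhibitors were combined with targeted agents, each dosed in half-log steps down from clinical Cmax, or from 10 microM when Cmax was unknown.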

[1] = second compound 0.00316 µM, first compound 0.0316 µM
[2] = second compound 0.00316 µM, first compound 0.1 µM
[3] = second compound 0.00316 µM, first compound 0.316 µM
[4] = second compound 0.00316 µM, first compound 1 µM
[5] = second compound 0.00316 µM, first compound 3.16 µM
[6] = second compound 0.00316 µM, first compound 10 µM
[7] = second compound 0.01 µM, first compound 0.0316 µM
[8] = second compound 0.01 µM, first compound 0.1 µM
[9] = second compound 0.01 µM, first compound 0.316 µM
[10] = second compound 0.01 µM, first compound 1 µM
[11] = second compound 0.01 µM, first compound 3.16 µM
[12] = second compound 0.01 µM, first compound 10 µM
[13] = second compound 0.0316 µM, first compound 0.0316 µM
[14] = second compound 0.0316 µM, first compound 0.1 µM
[15] = second compound 0.0316 µM, first compound 0.316 µM
[16] = second compound 0.0316 µM, first compound 1 µM
[17] = second compound 0.0316 µM, first compound 3.16 µM
[18] = second compound 0.0316 µM, first compound 10 µM
[19] = second compound 0.1 µM, first compound 0.0316 µM
[20] = second compound 0.1 µM, first compound 0.1 µM
[21] = second compound 0.1 µM, first compound 0.316 µM
[22] = second compound 0.1 µM, first compound 1 µM
[23] = second compound 0.1 µM, first compound 3.16 µM
[24] = second compound 0.1 µM, first compound 10 µM
[25] = second compound 0.316 µM, first compound 0.0316 µM
[26] = second compound 0.316 µM, first compound 0.1 µM
[27] = second compound 0.316 µM, first compound 0.316 µM
[28] = second compound 0.316 µM, first compound 1 µM
[29] = second compound 0.316 µM, first compound 3.16 µM
[30] = second compound 0.316 µM, first compound 10 µM
[31] = second compound 1 µM, first compound 0.0316 µM
[32] = second compound 1 µM, first compound 0.1 µM
[33] = second compound 1 µM, first compound 0.316 µM
[34] = second compound 1 µM, first compound 1 µM
[35] = second compound 1 µM, first compound 3.16 µM
[36] = second compound 1 µM, first compound 10 µM
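For viability, T/C in this document: spheroids exposed to agents for seven days before readout; 100% = DMSO vehicle control wells.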

IC50 (second compound 0.00316 µM): < 31.6 nM | IC50 (second compound 0.01 µM): < 31.6 nM | IC50 (second compound 0.0316 µM): < 31.6 nM | IC50 (second compound 0.1 µM): < 31.6 nM | IC50 (second compound 0.316 µM): < 31.6 nM | IC50 (second compound 1 µM): < 31.6 nM
Structure (SMILES): CC(=O)OC12COC1CC(O)C1(C)C(=O)C(O)C3=C(C)C(OC(=O)C(O)C(NC(=O)OC(C)(C)C)c4ccccc4)CC(O)(C(OC(=O)c4ccccc4)C21)C3(C)C (centres undefined) + C=CC(=O)N1CCN(c2nc(OCC3CCCN3C)nc3c(F)c(-c4nc(N)cc(C)c4C(F)(F)F)c(Cl)cc23)C(C)C1
viability, T/C [1]: 30.5% | viability, T/C [2]: 30.6% | viability, T/C [3]: 40% | viability, T/C [4]: 46.4% | viability, T/C [5]: 69.7% | viability, T/C [6]: 82.1% | viability, T/C [7]: 31.2% | viability, T/C [8]: 36.1% | viability, T/C [9]: 39.6% | viability, T/C [10]: 57.3% | viability, T/C [11]: 49.5% | viability, T/C [12]: 76.6% | viability, T/C [13]: 31% | viability, T/C [14]: 43.6% | viability, T/C [15]: 42.2% | viability, T/C [16]: 48.4% | viability, T/C [17]: 68.3% | viability, T/C [18]: 60.8% | viability, T/C [19]: 34.5% | viability, T/C [20]: 37.2% | viability, T/C [21]: 34.2% | viability, T/C [22]: 50.4% | viability, T/C [23]: 73.6% | viability, T/C [24]: 74% | viability, T/C [25]: 27.6% | viability, T/C [26]: 34.3% | viability, T/C [27]: 44.8% | viability, T/C [28]: 47.1% | viability, T/C [29]: 75.1% | viability, T/C [30]: 79% | viability, T/C [31]: 31.5% | viability, T/C [32]: 37.1% | viability, T/C [33]: 38.8% | viability, T/C [34]: 51% | viability, T/C [35]: 68.5% | viability, T/C [36]: 69.2%

IC50 (second compound 0.00316 µM): 1540 nM | IC50 (second compound 0.01 µM): 1720 nM | IC50 (second compound 0.0316 µM): 1680 nM | IC50 (second compound 0.1 µM): 1730 nM | IC50 (second compound 0.316 µM): 1720 nM | IC50 (second compound 1 µM): 1610 nM
Structure (SMILES): CCC(CC)c1cc(NC2CCC(N)C2)n2nccc2n1 (centres undefined) + C=CC(=O)N1CCN(c2nc(OCC3CCCN3C)nc3c(F)c(-c4nc(N)cc(C)c4C(F)(F)F)c(Cl)cc23)C(C)C1
viability, T/C [1]: 101% | viability, T/C [2]: 96.1% | viability, T/C [3]: 105% | viability, T/C [4]: 79.9% | viability, T/C [5]: 0.74% | viability, T/C [6]: 0.24% | viability, T/C [7]: 107% | viability, T/C [8]: 98.1% | viability, T/C [9]: 98.1% | viability, T/C [10]: 93.9% | viability, T/C [11]: 0.74% | viability, T/C [12]: 0.62% | viability, T/C [13]: 116% | viability, T/C [14]: 105% | viability, T/C [15]: 99% | viability, T/C [16]: 90% | viability, T/C [17]: 0.75% | viability, T/C [18]: 0.23% | viability, T/C [19]: 106% | viability, T/C [20]: 111% | viability, T/C [21]: 94.1% | viability, T/C [22]: 94.1% | viability, T/C [23]: 0.78% | viability, T/C [24]: 1.07% | viability, T/C [25]: 96% | viability, T/C [26]: 99.3% | viability, T/C [27]: 102% | viability, T/C [28]: 93.9% | viability, T/C [29]: 0.72% | viability, T/C [30]: 0.84% | viability, T/C [31]: 109% | viability, T/C [32]: 103% | viability, T/C [33]: 98.2% | viability, T/C [34]: 84.8% | viability, T/C [35]: 0.86% | viability, T/C [36]: 0.27%
